The text below walks through data of ChEMBL document CHEMBL1201862, “PubChem BioAssay data set” (2004).

Activity calls are given as the source filed them.

Some targets named below: Cytochrome P450 2C9 (Homo sapiens, UniProt P11712); Cytochrome P450 3A4 (Homo sapiens, UniProt P08684); Cytochrome P450 2D6 (Homo sapiens, UniProt P10635).
The next data set deals with Cytochrome P450 2C19 (Homo sapiens, UniProt P33261). The experiment in a line: Cytochrome panel assay with activity outcomes. Panel member name: p450-cyp2c19 Compounds with AC50 equal or less than 10 uM are considered active. It is filed as functional. The conditions noted are these: read-out: AC50.
The target of data set [1] is T1, Ubiquitin-conjugating enzyme E2 N (Homo sapiens, UniProt P61088).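 Note: Dose-response confirmation in a TR-FRET assay detecting UBC13-driven polyubiquitin chain formation, inhibition measured.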
T1 sequence (P61088 whole entry): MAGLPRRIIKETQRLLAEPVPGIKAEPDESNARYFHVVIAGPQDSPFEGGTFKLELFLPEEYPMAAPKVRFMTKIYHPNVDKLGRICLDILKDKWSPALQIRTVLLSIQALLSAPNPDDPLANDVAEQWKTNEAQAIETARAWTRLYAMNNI
Type of data set: functional.

A further data set deals with T2, Cysteine protease ATG4B (Homo sapiens, UniProt Q9Y4P1).
T2 sequence (Q9Y4P1 whole entry): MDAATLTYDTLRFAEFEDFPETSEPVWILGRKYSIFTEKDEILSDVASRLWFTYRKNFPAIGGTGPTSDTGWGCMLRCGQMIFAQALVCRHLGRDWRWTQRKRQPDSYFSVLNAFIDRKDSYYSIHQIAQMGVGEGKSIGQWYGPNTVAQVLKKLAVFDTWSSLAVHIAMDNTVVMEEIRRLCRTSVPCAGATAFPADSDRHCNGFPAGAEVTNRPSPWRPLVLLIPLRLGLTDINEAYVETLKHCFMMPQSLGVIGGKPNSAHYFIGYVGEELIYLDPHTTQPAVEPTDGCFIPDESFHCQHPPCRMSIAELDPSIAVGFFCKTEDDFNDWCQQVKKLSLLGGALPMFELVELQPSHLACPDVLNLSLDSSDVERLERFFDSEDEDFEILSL
It is filed as functional.

The next data set concerns the target Phospholipase A2 (Homo sapiens, UniProt P04054). Type of data set: functional.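 Note: confirmatory dose-response counterscreen on phospholipase A2, testing hits that came from an ultra-high-throughput screen for ATG4B inhibitors.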
For data set [2], the system named is HEK293. The data set can be described thus: cells. Type of data set: functional, cell-based. The conditions noted are these: Homo sapiens.
The target of data set [3] is T3, Nuclear receptor subfamily 0 group B member 1 (Homo sapiens, UniProt P51843).
T3 sequence (P51843 whole entry): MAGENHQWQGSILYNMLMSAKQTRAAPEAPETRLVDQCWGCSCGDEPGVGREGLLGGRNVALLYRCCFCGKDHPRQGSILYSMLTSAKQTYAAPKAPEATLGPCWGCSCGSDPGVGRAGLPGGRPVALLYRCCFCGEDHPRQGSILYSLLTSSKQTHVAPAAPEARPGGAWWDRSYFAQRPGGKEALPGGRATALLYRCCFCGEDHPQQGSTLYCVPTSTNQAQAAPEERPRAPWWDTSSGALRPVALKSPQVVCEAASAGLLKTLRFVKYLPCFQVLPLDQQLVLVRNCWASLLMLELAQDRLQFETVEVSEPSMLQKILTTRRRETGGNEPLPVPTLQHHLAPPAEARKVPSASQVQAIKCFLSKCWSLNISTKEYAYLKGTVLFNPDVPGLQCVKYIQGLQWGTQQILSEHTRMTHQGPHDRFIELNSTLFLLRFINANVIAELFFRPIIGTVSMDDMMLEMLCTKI
The data set can be described thus: Luminescence-based cell-based high throughput dose response assay for inhibitors of the orphan nuclear receptor subfamily 0, group B, member 1 (DAX1; NR0B1). [Related pubchem assays (depositor defined):AID504766, AID504790]. Type of data set: functional.

The nature of data set [4]: NIH-3T3 fibroblast cytotoxicity, dose response, cytotoxicity control, cell-based, fluorescence, Alamar Blue, secondary assay (AID 2327).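 Note: NIH-3T3 mouse fibroblasts cultured with fluconazole at 8 µg/mL.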 It is filed as functional. (Alamar Blue is a resazurin reagent that responds to reducing activity.)
The nature of data set [5]: C. albicans growth with fluconazole, confirmation, fluorescence, retest (AID 2467). Type of data set: functional, cell-based.
The nature of data set [6]: inhibitors of intracellular T. cruzi replication, confirmation, NIH3T3 host cells, beta-gal luminescence (AID 2044).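 Note: intracellular parasites grown in NIH/3T3 mouse fibroblasts as host cells; luminescent beta-galactosidase reporter signal from transgenic T. cruzi replicating inside host cells; inhibitors lower the luminescence signal.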 It is filed as functional, cell-based.
Data set [7] is described as follows: cytotoxicity toward NIH3T3 fibroblasts, dose response, counter-screen, cell-based, ATP luminescence, mouse fibroblasts (AID 2010).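 Note: cells exposed to compound for about 90 hours before reading.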 Type of data set: functional. Background: Counterscreens check selectivity or assay interference.
Data set [8] concerns HEK293. The experiment in a line: NOD1 signaling inhibitors, primary screen, cell-based, luminescence, uHTS (AID 1578). Type of data set: functional. The conditions noted are these: Homo sapiens.
Data set [9] concerns HEK293. The data set can be described thus: cells. It is filed as functional, cell-based. The conditions noted are these: Homo sapiens. The source holds these as a separate data set.
In data set [10] the test system is HEK293. The data set can be described thus: cells. The conditions noted are these: Homo sapiens. It is filed as functional, cell-based. The source holds these as a separate data set.
Data set [11] has as its target Nucleotide-binding oligomerization domain-containing protein 2 (Homo sapiens, UniProt Q9HC29). The data set can be described thus: NOD2 signaling inhibitors, cell-based, luminescence, uHTS, HEK293 (AID 1566). It is filed as functional.
Data set [12] relates to HEK293. The experiment in a line: NOD2 signaling inhibitors in MDP-stimulated cells, cell-based, uHTS, luminescence (AID 2001). The conditions noted are these: Homo sapiens. Type of data set: functional.
Data set [13] relates to HEK293. The experiment in a line: cells. Type of data set: functional, cell-based. The conditions noted are these: Homo sapiens. This is another data set of the same source.
The target of data set [14] is T4, High affinity choline transporter 1 (Homo sapiens, UniProt Q9GZV3).
T4 sequence (Q9GZV3 whole entry): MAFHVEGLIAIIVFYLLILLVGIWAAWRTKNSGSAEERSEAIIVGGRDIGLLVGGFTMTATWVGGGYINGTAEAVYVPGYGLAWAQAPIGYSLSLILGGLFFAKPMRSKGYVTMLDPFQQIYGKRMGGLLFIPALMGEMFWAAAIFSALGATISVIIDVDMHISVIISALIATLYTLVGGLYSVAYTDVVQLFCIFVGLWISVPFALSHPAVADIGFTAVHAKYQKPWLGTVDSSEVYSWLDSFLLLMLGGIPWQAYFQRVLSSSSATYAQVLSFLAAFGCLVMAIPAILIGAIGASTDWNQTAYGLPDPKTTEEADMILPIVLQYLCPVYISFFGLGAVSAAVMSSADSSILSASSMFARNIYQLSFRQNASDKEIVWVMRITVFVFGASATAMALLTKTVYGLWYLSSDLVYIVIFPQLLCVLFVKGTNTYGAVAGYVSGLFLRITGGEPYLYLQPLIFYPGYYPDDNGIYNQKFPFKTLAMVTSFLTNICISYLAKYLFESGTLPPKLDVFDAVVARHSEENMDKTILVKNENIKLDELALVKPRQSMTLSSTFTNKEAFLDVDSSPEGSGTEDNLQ
The data set can be described thus: CHT inhibitors, dose response, cell-based, 5-point CRC, membrane potential dye (AID 504840). Type of data set: functional.

A short description of data set [15]: Shn3 3'UTR reporter inhibitors, dose response, cell-based, Clone20 osteoblasts, firefly luciferase, cherry-picked (AID 624132).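 Note: firefly luciferase luminescence from reporter carrying the Shn3 3'UTR in osteoblasts.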 It is filed as functional.
Data set [16] can be described thus: HepG2 cell cytotoxicity, dose response, cytotoxicity control for Shn3 inhibitor project, CellTiter-Glo, cherry-picked (AID 624134). It is filed as functional, cell-based.
A short description of data set [17]: control 3'UTR Renilla luciferase suppression, dose response, counter-screen for Shn3 inhibitor project, cell-based, Clone20-Shn3RL, cherry-picked (AID 624133). Type of data set: functional.
Another data set addresses T5, Cytochrome P450 1A2 (Homo sapiens, UniProt P05177).
T5 sequence (P05177 whole entry): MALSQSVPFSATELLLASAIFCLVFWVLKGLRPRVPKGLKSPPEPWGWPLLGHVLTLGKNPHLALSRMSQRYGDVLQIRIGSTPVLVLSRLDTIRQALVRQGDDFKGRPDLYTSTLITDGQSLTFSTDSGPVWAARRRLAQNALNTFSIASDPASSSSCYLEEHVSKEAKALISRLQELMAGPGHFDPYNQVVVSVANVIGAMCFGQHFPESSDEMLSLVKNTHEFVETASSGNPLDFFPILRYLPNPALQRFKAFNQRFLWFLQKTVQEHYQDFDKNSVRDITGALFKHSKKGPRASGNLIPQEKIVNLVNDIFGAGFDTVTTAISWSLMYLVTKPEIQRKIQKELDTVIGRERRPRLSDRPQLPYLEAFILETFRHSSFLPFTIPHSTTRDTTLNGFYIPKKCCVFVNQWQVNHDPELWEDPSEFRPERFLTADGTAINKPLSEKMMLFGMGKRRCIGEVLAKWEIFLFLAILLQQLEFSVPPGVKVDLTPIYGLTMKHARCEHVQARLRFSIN

Cytochrome P450 3A4, sequence (P08684 whole entry): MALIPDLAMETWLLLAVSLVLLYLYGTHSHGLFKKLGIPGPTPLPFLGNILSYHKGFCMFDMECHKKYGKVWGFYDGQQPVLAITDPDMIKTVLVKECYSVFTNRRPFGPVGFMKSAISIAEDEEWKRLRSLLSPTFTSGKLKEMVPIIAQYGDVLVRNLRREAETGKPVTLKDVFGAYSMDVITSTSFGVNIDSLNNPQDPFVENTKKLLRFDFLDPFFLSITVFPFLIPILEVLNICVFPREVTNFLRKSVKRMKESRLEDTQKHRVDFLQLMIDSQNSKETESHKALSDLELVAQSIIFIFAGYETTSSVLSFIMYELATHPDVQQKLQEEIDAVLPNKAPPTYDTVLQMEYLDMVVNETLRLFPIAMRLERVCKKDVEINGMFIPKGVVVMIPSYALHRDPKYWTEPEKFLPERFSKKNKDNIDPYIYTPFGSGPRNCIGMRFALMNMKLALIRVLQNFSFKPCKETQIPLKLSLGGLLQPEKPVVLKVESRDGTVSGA
Phospholipase A2, sequence (P04054 whole entry): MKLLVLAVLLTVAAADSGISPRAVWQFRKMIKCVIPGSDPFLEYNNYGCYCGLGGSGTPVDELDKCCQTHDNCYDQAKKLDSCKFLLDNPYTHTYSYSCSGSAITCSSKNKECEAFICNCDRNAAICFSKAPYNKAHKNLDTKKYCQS
Cytochrome P450 2C9, sequence (P11712 whole entry): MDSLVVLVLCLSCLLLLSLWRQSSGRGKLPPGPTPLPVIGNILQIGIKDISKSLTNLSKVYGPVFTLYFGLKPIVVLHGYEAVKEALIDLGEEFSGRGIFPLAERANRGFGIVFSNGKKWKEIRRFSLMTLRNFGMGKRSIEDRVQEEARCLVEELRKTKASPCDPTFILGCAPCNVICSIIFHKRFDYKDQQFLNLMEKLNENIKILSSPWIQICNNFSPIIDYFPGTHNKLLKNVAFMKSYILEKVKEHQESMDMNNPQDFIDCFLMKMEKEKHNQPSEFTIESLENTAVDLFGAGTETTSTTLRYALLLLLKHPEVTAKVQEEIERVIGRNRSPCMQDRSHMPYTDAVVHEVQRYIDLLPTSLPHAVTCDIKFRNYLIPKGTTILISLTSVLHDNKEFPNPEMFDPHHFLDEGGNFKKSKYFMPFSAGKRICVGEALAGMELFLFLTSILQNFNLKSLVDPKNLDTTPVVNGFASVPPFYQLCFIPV
Cytochrome P450 2D6, sequence (P10635 whole entry): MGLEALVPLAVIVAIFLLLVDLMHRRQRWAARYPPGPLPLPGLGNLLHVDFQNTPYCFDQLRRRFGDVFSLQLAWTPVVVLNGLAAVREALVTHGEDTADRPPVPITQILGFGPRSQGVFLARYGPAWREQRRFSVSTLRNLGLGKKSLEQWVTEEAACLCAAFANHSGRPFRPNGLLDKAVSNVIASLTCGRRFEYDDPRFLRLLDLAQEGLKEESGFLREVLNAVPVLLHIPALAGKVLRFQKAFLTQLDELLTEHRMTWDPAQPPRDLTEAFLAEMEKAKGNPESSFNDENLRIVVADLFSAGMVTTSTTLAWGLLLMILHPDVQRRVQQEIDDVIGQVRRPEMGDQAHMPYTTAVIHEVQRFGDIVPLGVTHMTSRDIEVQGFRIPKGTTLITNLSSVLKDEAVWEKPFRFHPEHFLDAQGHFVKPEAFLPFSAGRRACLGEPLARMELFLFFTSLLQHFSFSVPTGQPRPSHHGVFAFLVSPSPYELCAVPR
Nucleotide-binding oligomerization domain-containing protein 2, sequence (Q9HC29 whole entry, the tested form may be a part): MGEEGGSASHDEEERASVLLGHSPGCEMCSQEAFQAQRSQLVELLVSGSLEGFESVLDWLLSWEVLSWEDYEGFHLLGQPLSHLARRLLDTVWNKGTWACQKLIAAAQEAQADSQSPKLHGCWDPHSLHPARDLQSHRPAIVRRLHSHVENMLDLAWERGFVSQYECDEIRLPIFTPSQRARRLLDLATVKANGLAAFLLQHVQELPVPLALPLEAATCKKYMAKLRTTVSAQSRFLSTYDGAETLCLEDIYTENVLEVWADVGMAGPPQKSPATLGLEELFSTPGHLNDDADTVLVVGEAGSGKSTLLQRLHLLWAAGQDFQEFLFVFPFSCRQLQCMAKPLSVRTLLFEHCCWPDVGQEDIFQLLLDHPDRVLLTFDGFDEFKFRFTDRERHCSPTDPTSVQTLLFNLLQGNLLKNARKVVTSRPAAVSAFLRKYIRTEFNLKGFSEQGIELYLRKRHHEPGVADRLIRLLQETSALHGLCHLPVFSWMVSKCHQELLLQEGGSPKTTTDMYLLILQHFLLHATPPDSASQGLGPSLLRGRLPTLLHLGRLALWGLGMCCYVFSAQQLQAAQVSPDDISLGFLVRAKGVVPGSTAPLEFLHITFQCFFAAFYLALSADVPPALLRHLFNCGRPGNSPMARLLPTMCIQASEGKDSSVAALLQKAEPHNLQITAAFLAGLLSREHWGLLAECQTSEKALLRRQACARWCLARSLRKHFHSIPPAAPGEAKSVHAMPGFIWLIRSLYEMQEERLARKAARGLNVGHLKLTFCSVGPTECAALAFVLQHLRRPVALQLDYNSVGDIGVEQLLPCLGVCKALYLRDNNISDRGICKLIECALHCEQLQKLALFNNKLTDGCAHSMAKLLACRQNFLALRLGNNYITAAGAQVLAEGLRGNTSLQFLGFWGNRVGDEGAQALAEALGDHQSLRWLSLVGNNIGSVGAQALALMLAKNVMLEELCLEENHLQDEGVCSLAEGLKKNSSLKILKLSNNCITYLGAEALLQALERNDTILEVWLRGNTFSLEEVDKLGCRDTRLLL
Cytochrome P450 2C19, sequence (P33261 whole entry): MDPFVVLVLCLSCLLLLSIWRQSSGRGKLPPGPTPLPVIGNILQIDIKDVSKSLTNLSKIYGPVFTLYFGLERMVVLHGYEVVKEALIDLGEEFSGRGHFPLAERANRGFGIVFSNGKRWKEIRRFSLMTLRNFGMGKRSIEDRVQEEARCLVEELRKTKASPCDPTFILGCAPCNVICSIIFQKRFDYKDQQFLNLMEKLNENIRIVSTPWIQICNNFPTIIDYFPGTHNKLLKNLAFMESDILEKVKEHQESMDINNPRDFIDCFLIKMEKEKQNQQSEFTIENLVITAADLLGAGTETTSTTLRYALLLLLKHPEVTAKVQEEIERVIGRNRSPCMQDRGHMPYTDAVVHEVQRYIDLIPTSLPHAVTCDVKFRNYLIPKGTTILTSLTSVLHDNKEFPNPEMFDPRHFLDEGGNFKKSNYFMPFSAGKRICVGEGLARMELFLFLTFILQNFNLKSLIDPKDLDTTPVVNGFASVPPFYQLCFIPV

With `CCOC(=O)c1c(-c2ccccc2)nc2ccccn12`, the AC50 is 25.1 µM (inconclusive) at Cytochrome P450 2C19, 25.1 µM (inconclusive) at Cytochrome P450 2C9 and “inconclusive” on Cytochrome P450 3A4.

On to `CCCCn1c(SCC(=O)Nc2cc(C)n[nH]2)nc2ccsc2c1=O`, for which the IC50 in data set [1] was > 20 µM (inactive); on Cysteine protease ATG4B, 12.2 µM (active); at Phospholipase A2 it was 9.31 µM (active).

With `CC1=CC(c2ccccc2)n2nnnc2N1` (stereo unspecified), the IC50 (in the data set on HEK293 [2]; in [3]) was > 67.6 µM (inactive) throughout.

As to `O=C(c1ccccc1)c1cnc(Nc2ccccc2Cl)s1`, the IC50 is 11.5 µM (active) on Cysteine protease ATG4B and 7.65 µM (active) at Phospholipase A2.

As to `COc1ccc(-c2[nH]nc3c2C(c2ccc(OC(=O)N4CCOCC4)cc2)C(C#N)=C(N)O3)cc1` (stereo unspecified), the IC50 was 18.3 µM (active) on Cysteine protease ATG4B and 13.4 µM (active) on Phospholipase A2.

Take `O=C(c1ccccc1)c1ccc2[nH]c(-c3ccc(NC(=O)c4ccccc4Br)cc3)nc2c1`: the EC50 was 2.97 µM (active) in data set [4], 6.15 µM (active) in data set [5], 1.59 µM (active) in data set [6] and 7.33 µM (active) in data set [7]. The AC50 at Cytochrome P450 2D6 is 14.1 µM (inconclusive); at Cytochrome P450 3A4, “inconclusive”.

Take `COc1ccc(-c2nc(CN3CCN(c4ncnc5ccccc45)CC3)c(C)o2)c(OC)c1`: the EC50 with HEK293 [8] is 5.23 µM (active); in data set [11], 5.52 µM (active). Also, the IC50 in the data set with HEK293 [9] is 6.96 µM (active); in the data set on HEK293 [10], 13.7 µM (active); in the data set on HEK293 [12], 6.38 µM (active); in the data set on HEK293 [13] it was > 20 µM (inactive); in data set [14] it was 16.8 µM (active). The AC50 is 6.38 µM (active) in data set [15], > 70 µM (inactive) in [16] and 5.24 µM (active) in [17].

For `O=C(Nc1ccccc1)N1CC2(CCN(C(=O)Oc3ccccc3)CC2)C1`, the half-maximal activity concentration (AC50) is 20 µM (inconclusive) at Cytochrome P450 1A2 and “inconclusive” at Cytochrome P450 3A4.

Regarding `C[C@@H]1CN(Cc2nc(-c3cccs3)no2)C[C@H](C)O1`, the IC50 (in the data set with HEK293 [2]; in data set [3]) was > 67.5 µM (inactive) throughout.

With `O=C(Oc1ccccc1)N1CCC2(CC1)CN(c1ncccn1)C2`, the AC50 on Cytochrome P450 1A2 was 25.1 µM (inconclusive); at Cytochrome P450 2C9, 25.1 µM (inconclusive); at Cytochrome P450 3A4, “inconclusive”.

For the compound `CN(NC1OC(=O)c2ccccc21)c1ccccc1[N+](=O)[O-]` (stereo unspecified), the IC50 (in the data set on HEK293 [2]; in [3]) was > 67.5 µM (inactive) in each case.

Consider `COC(=O)c1cc(/N=C/c2c(O)oc3ccccc3c2=O)cc(C(=O)OC)c1`, for which the IC50 (in the data set with HEK293 [2]; in data set [3]) was > 67.5 µM (inactive) in each case.

In the case of `Cc1c(C)c(C)c(CO/N=C/c2cccs2)c(C)c1C`, the figures for the IC50 on Cysteine protease ATG4B and at Phospholipase A2 were 17.4 µM (active) and 7.99 µM (active), respectively.

By AC50 is commonly meant the midpoint of the concentration-response curve, whichever way the signal moves. Usually IC50 stands for the concentration that gives 50% inhibition. One may read the EC50 as the concentration at which the effect is half-maximal.
